Consider 39 compounds from patent publication US11878966B2, “Substituted 4-benzyl and 4-benzoyl piperidine derivates” (89BIO LTD, priority 2015, dated 2024).

For the assay, the target named is T1, recombinant human baculovirus-expressed GST-tagged FASN (Homo sapiens, UniProt P49327).
T1 construct: GST; host or cells: baculovirus expression system (insect cells implied)
Description: FASN enzyme activity assay: fluorescence-based detection of CoA with CPM. To be noted: 5 nM FASN, 150 μM NADPH, 10 μM acetyl-CoA, 25 μM malonyl-CoA, 90 minutes incubation. It is filed as biochemical. An outline of the steps:
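IC50 values were fitted (variable-slope sigmoid) to percent inhibition from CPM fluorescence (390/530 nm) reporting free CoA after a 30 min labelling step. The reaction ran 90 min after malonyl-CoA (25 μM) addition, with 10 μM acetyl-CoA, 150 μM NADPH, 5 nM recombinant GST-FASN, 50 mM HEPES pH 7.5 and 0.5% DMSO.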

T1 sequence (P49327 whole entry): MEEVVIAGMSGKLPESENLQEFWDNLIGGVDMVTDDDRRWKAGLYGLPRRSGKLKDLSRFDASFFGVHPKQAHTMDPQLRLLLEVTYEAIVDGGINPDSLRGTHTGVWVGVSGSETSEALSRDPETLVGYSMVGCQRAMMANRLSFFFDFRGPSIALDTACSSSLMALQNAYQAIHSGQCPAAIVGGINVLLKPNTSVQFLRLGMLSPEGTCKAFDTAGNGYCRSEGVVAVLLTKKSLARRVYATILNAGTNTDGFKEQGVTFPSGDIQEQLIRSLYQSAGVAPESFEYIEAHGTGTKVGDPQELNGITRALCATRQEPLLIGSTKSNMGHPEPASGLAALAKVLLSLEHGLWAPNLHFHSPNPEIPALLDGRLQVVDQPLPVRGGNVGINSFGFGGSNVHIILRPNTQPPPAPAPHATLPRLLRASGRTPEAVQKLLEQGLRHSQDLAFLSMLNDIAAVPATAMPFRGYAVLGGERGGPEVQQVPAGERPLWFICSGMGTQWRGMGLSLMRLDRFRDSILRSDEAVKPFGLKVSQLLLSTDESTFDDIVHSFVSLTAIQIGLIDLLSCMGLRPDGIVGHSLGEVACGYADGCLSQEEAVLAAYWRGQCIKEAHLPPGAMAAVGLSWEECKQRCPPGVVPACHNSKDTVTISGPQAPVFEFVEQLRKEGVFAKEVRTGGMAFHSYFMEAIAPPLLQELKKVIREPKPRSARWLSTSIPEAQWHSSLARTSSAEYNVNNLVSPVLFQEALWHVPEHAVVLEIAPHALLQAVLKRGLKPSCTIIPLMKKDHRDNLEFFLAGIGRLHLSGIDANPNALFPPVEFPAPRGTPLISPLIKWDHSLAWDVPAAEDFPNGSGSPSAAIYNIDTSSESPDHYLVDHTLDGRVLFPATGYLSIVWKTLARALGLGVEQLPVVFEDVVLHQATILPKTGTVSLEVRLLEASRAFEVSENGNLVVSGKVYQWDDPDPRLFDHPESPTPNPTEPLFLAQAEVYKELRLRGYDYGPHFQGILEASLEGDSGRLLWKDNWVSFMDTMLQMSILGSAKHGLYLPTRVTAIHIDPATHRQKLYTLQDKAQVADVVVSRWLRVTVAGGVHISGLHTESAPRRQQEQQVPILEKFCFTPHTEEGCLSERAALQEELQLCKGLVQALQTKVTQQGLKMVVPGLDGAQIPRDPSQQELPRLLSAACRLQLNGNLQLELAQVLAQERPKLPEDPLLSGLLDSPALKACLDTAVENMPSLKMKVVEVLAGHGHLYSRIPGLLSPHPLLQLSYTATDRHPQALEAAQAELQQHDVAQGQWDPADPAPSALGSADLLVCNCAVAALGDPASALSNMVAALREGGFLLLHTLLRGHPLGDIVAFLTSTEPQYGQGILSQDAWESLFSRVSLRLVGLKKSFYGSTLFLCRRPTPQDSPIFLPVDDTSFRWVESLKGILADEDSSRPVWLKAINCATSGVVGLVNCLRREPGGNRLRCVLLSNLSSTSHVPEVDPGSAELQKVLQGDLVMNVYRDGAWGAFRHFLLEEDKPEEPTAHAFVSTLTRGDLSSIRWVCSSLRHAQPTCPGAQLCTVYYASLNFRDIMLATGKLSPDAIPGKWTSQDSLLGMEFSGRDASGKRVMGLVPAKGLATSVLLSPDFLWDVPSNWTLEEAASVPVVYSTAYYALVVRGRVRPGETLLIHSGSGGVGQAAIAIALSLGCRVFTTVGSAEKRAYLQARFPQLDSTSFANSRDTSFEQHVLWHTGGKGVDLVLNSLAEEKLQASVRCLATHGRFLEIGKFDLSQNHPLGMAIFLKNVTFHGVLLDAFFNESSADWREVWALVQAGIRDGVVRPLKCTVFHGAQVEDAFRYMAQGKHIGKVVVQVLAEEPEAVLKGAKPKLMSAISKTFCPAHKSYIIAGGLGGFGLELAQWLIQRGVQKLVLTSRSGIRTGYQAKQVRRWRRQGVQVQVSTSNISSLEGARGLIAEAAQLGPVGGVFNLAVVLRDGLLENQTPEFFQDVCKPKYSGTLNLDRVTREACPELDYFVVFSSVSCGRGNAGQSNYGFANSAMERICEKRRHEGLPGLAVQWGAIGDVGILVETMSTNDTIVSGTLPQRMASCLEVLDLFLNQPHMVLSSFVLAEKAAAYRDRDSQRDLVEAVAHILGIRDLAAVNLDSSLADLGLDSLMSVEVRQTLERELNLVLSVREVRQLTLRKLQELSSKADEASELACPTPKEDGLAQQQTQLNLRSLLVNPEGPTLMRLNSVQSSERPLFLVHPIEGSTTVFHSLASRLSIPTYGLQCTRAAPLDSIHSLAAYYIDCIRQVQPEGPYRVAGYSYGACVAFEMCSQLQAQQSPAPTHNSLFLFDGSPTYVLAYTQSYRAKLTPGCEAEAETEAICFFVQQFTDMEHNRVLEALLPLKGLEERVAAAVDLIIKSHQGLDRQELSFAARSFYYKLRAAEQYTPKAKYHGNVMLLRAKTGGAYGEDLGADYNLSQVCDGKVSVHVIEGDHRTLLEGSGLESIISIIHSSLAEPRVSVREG

`CC(=O)N1CCC(C2(c3ccc(-c4ccc5ccncc5c4)cc3)OCCO2)CC1` [Example 115, 1-{4-[2-(4-Isoquinolin-7-yl-phenyl)-1,3-dioxolan-2-yl]-piperidin-1-yl}-ethanone]: the IC50 lay within 1000 to 10000 nM.
As for `CCC(=O)N1CCC(C2(c3ccc(-c4ccc5ccncc5c4)cc3)OCCO2)CC1` [Example 116, 1-{4-[2-(4-Isoquinolin-7-yl-phenyl)-1,3-dioxolan-2-yl]-piperidin-1-yl}-propan-1-one], the 50% inhibitory concentration (IC50) is 1000 to 10000 nM.
To `CC(C)C(=O)N1CCC(C2(c3ccc(-c4ccc5ccncc5c4)cc3)OCCO2)CC1` [Example 117, 1-{4-[2-(4-Isoquinolin-7-yl-phenyl)-1,3-dioxolan-2-yl]-piperidin-1-yl}-2-methyl-propan-1-one] belongs 1000 to 10000 nM.
To `CC(C)C(=O)N1CCC(C2(c3ccc(-c4ccc5cccnc5c4)cc3)OCCCO2)CC1` [Example 121, 2-Methyl-1-{4-[2-(4-quinolin-7-yl-phenyl)-1,3-dioxinan-2-yl]-piperidin-1-yl}-propan-1-one] belongs 1000 to 10000 nM; to `O=C(C1CC1)N1CCC(C2(c3ccc(-c4ccc5cccnc5c4)cc3)OCCCO2)CC1` [Example 122, Cyclopropyl-{4-[2-(4-quinolin-7-yl-phenyl)-1,3-dioxinan-2-yl]-piperidin-1-yl}-methanone], 1000 to 10000 nM.
As for `CCC(=O)N1CCC(C2(c3ccc(-c4ccc5cccnc5c4)cc3)OCCCO2)CC1` [Example 123, 1-{4-[2-(4-Quinolin-7-yl-phenyl)-1,3-dioxinan-2-yl]-piperidin-1-yl}-propan-1-one], the IC50 fell in the range of 1000 to 10000 nM.
To `CCC(=O)N1CCC(C(=O)c2ccc(-c3ccc4cccnc4c3)cc2)CC1` [Example 124, 1-[4-(4-Quinolin-7-yl-benzoyl)-piperidin-1-yl]-propan-1-one] belongs 1000 to 10000 nM.
To `CCC(=O)N1CCC(C(O)c2ccc(-c3ccc4cccnc4c3)cc2)CC1` (stereo not drawn) [Example 125, 1-{4-[Hydroxy-(4-quinolin-7-yl-phenyl)-methyl]-piperidin-1-yl}-propan-1-one] belongs 1 to 99 nM.
As to `CCC(=O)N1CCC(C(C)(O)c2ccc(-c3ccc4cccnc4c3)cc2)CC1` (stereo not drawn) [Example 126, 1-{4-[1-Hydroxy-1-(4-quinolin-7-yl-phenyl)-ethyl]-piperidin-1-yl}-propan-1-one], the IC50 lay within 100 to 999 nM.
To `CCC(=O)N1CCC(C(=O)c2ccc(-c3ccc4cnccc4c3)cc2F)CC1` [Example 127, 1-[4-(2-Fluoro-4-isoquinolin-6-yl-benzoyl)-piperidin-1-yl]-propan-1-one] belongs 1 to 99 nM.
Consider `CCC(=O)N1CCC(C(O)c2ccc(-c3ccc4cnccc4c3)cc2F)CC1` (stereo not drawn) [Example 128, 1-{4-[(2-Fluoro-4-isoquinolin-6-yl-phenyl)-hydroxy-methyl]-piperidin-1-yl}-propan-1-one], for which the IC50 lay within 1 to 99 nM.
Take `CCC(=O)N1CCC(C(=O)c2ccc(-c3ccc4cnccc4c3)cc2)CC1` [Example 129, 1-[4-(4-Isoquinolin-6-yl-benzoyl)-piperidin-1-yl]-propan-1-one]: the 50% inhibitory concentration (IC50) was 1000 to 10000 nM.
To `CCC(=O)N1CCC(C(O)c2ccc(-c3ccc4cnccc4c3)cc2)CC1` (stereo not drawn) [Example 130, 1-{4-[Hydroxy-(4-isoquinolin-6-yl-phenyl)-methyl]-piperidin-1-yl}-propan-1-one] belongs 1 to 99 nM.
The result for `CCC(=O)N1CCC(C(C)(O)c2ccc(-c3ccc4cnccc4c3)cc2)CC1` (stereo not drawn) [Example 131, 1-{4-[1-Hydroxy-1-(4-isoquinolin-6-yl-phenyl)-ethyl]-piperidin-1-yl}-propan-1-one] reads 100 to 999 nM; that for `CCC(=O)N1CCC(C(C)(O)c2ccc(-c3ccc4cnccc4c3)cc2F)CC1` (stereo not drawn) [Example 132, 1-{4-[1-(2-Fluoro-4-isoquinolin-6-yl-phenyl)-1-hydroxy-ethyl]-piperidin-1-yl}-propan-1-one], 1 to 99 nM; that for `CCC(=O)N1CCC(C(=O)c2ccc(-c3ccc4cnccc4c3)cc2)C1` (stereo not drawn) [Example 133, 1-[3-(4-Isoquinolin-6-yl-benzoyl)-pyrrolidin-1-yl]-propan-1-one], 1000 to 10000 nM.
To `CCC(=O)N1CCC(C(C)(O)c2ccc(-c3ccc4cnccc4c3)cc2)C1` (stereo not drawn) [Example 134, 1-{3-[1-Hydroxy-1-(4-isoquinolin-6-yl-phenyl)-ethyl]-pyrrolidin-1-yl}-propan-1-one] belongs 1000 to 10000 nM; to `CC(C)C(=O)N1CCC(C2(c3ccc(-c4ccc(CN(C)C)cc4)cc3)OCCO2)CC1` [Example 135, 1-{4-[2-(4′-Dimethylaminomethyl-biphenyl-4-yl)-1,3-dioxolan-2-yl]piperidin-1-yl}-2-methyl-propan-1-one], 1000 to 10000 nM; to `CCC(=O)N1CCC(C2(c3ccc(-c4ccc(CN(C)C)cc4)cc3)OCCO2)CC1` [Example 136, 1-{4-[2-(4′-Dimethylaminomethyl-biphenyl-4-yl)-1,3-dioxolan-2-yl]-piperidin-1-yl}-propan-1-one], 1000 to 10000 nM.
Take `CN(C)Cc1ccc(-c2ccc(C3(C4CCN(C(=O)C5CC5)CC4)OCCO3)cc2)cc1` [Example 137, Cyclopropyl-{4-[2-(4′-dimethylaminomethyl-biphenyl-4-yl)-1,3-dioxolan-2-yl]-piperidin-1-yl}-methanone]: the IC50 was in the range of 1000 to 10000 nM.
For `CCC(=O)N1CCC(C(=O)c2c(F)cc(-c3ccc4cnccc4c3)cc2F)CC1` [Example 138, 1-[4-(2,6-Difluoro-4-isoquinolin-6-yl-benzoyl)-piperidin-1-yl]-propan-1-one], the IC50 is 100 to 999 nM.
To `CCC(=O)N1CCC(C2(c3ccc(-c4cnc5ccccc5c4)cc3)OCCO2)CC1` [Example 139, 1-{4-[2-(4-Quinolin-3-yl-phenyl)-1,3-dioxolan-2-yl]-piperidin-1-yl}-propan-1-one] belongs 1 to 99 nM; to `CC(C)C(=O)N1CCC(C2(c3ccc(-c4cnc5ccccc5c4)cc3)OCCO2)CC1` [Example 140, 2-Methyl-1-{4-[2-(4-quinolin-3-yl-phenyl)-1,3-dioxolan-2-yl]-piperidin-1-yl}-propan-1-one], 100 to 999 nM; to `O=C(C1CC1)N1CCC(C2(c3ccc(-c4cnc5ccccc5c4)cc3)OCCO2)CC1` [Example 141, Cyclopropyl-(4-[2-(4-quinolin-3-yl-phenyl)-1,3-dioxolan-2-yl]-piperidin-1-yl)-methanone], 100 to 999 nM.
To `CCC(=O)N1CCC(C(=O)c2ccc(-c3ccc4cccnc4c3)cc2F)CC1` [Example 142, 1-[4-(2-Fluoro-4-quinolin-7-yl-benzoyl)-piperidin-1-yl]-propan-1-one] belongs 100 to 999 nM.
The result for `CCC(=O)N1CCC(C(=O)c2ccc(-c3cnc4ccccc4c3)cc2F)CC1` [Example 143, 1-[4-(2-Fluoro-4-quinolin-3-yl-benzoyl)piperidin-1-yl]propan-1-one] reads 1 to 99 nM; that for `COC(=O)N1CCC(C(=O)c2ccc(-c3cnc4ccccc4c3)cc2F)CC1` [Example 144, 4-(2-Fluoro-4-quinolin-3-yl-benzoyl)piperidine-1-carboxylic Acid Methyl Ester], 1000 to 10000 nM.
As to `O=C(N1CCC(O)(Cc2ccc(-c3cc4ccccc4cn3)cc2)CC1)N1CCCO1` [Example 145, (4-hydroxy-4-(4-(isoquinolin-3-yl)benzyl)piperidin-1-yl)(isoxazolidin-2-yl)methanone], the half-maximal inhibitory concentration (IC50) was 1000 to 10000 nM.
With `O=C([C@H]1CCCO1)N1CCC(O)(Cc2ccc(-c3cc4ccccc4cn3)cc2)CC1` [Example 146, [4-Hydroxy-4-(4-isoquinolin-3-yl-benzyl)-piperidin-1-yl]-(R)-tetrahydro-furan-2-yl-methanone], the IC50 was 100 to 999 nM.
To `CCC(=O)N1CCC(F)(Cc2ccc(-c3cnc4ccccc4c3)cc2)CC1` [Example 161, 1-(4-fluoro-4-(4-(quinolin-3-yl)benzyl)piperidin-1-yl)propan-1-one] belongs 1 to 99 nM; to `CCC(=O)N1CC=C(Cc2ccc(-c3cnc4ccccc4c3)cc2)CC1` [Example 162, 1-(4-(4-(quinolin-3-yl)benzyl)-5,6-dihydropyridin-1(2H)-yl)propan-1-one], 1 to 99 nM.
To `CCC(=O)N1CCC(F)(Cc2ccc(-c3ccc4cccnc4c3)cc2)CC1` [Example 163, 1-(4-fluoro-4-(4-(quinolin-7-yl)benzyl)piperidin-1-yl)propan-1-one] belongs 1 to 99 nM; to `CCC(=O)N1CC=C(Cc2ccc(-c3ccc4cccnc4c3)cc2)CC1` [Example 164, 1-(4-(4-(quinolin-7-yl)benzyl)-5,6-dihydropyridin-1(2H)-yl)propan-1-one], 100 to 999 nM.
The result for `CCC(=O)N1CCC(F)(Cc2ccc(-c3ccc4cnccc4c3)cc2)CC1` [Example 165, 1-(4-fluoro-4-(4-(isoquinolin-6-yl)benzyl)piperidin-1-yl)propan-1-one] reads 1 to 99 nM.
With `CCC(=O)N1CC=C(Cc2ccc(-c3ccc4cnccc4c3)cc2)CC1` [Example 166, 1-(4-(4-(isoquinolin-6-yl)benzyl)-5,6-dihydropyridin-1(2H)-yl)propan-1-one], the concentration for half-maximal inhibition (IC50) is 100 to 999 nM.
As for `CCC(=O)N1CCC(F)(Cc2ccc(-c3cncc4ccccc34)cc2)CC1` [Example 167, 1-(4-fluoro-4-(4-(isoquinolin-4-yl)benzyl)piperidin-1-yl)propan-1-one], the IC50 lay within 1 to 99 nM.
To `CCC(=O)N1CC=C(Cc2ccc(-c3cncc4ccccc34)cc2)CC1` [Example 168, 1-(4-(4-(isoquinolin-4-yl)benzyl)-5,6-dihydropyridin-1(2H)-yl)propan-1-one] belongs 1000 to 10000 nM; to `CCC(=O)N1CCC(F)(Cc2ccc(-c3ccc4occc4c3)cc2)CC1` [Example 169, 1-(4-(4-(benzofuran-5-yl)benzyl)-4-fluoropiperidin-1-yl)propan-1-one], 100 to 999 nM.
In the case of `CCC(=O)N1CC=C(Cc2ccc(-c3ccc4occc4c3)cc2)CC1` [Example 170, 1-(4-(4-(benzofuran-5-yl)benzyl)-5,6-dihydropyridin-1(2H)-yl)propan-1-one], the 50% inhibitory concentration (IC50) lay within 1 to 99 nM.
